Legend:
[1] = system: EMT6 cells; assay: Drug efficacy evaluation test using tumor-bearing mice transplanted with EMT6 cells (Experimental Example 7); assay type: in vivo, BALB/c mice; details: liposome formulation, tail vein, 25 mg/kg and 50 mg/kg twice a week
Protocol: The liposome formulation encapsulating the compound of the present disclosure was treated and evaluated for anti-tumor effect.
The liposome formulations were prepared as follows. The liposomes encapsulating the compounds of Example 3 and Example 4 were prepared in the same manner as in Experimental Example 4, respectively. The liposome outer solution was replaced with 10 mM tartrate buffer solution/10% sucrose solution (pH 4) using Sephadex G-25 column (PD-10, manufactured by GE Healthcare), followed by concentration by an ultrafiltration filter (AmiconUltra, 100K, 15 mL, manufactured by Merck), and filtration through a 0.22 μm membrane filter.
EMT6 cells (ATCC) were intradermally transplanted into 5-week-old BALB/c mice (BALB/cAnNCrlCrlj, female, Charles River, Japan) around the ventral region at 5×10^5 cells/mouse. […] The tumor volume was measured over time from the start of administration, and the tumor volume reduction effect due to compound administration was evaluated. The tumor volume was calculated by the following formula using the short and long diameters of the tumor measured with an electronic caliper (Mitutoyo). […]
(§1) The anti-tumor effect was evaluated by comparing the control group administered with the empty liposome solution and the administration group of the compound of the present disclosure, and calculating T/C by the following formula.

[2] = system: A673 cells; assay: Drug efficacy evaluation test using tumor-bearing mice transplanted with A673 cells (Experimental Example 8); assay type: in vivo, BALB/c mice; details: liposome formulation, tail vein, 50 mg/kg twice a week
Protocol: The liposome formulation encapsulating the compound of the present disclosure was treated and evaluated for anti-tumor effect and weight loss.
The liposome formulations were prepared as follows. The liposomes encapsulating the compounds of Example 1, Example 2, Example 5 and Example 6 were prepared in the same manner as in Experimental Example 4, respectively. The liposome outer solution was replaced with 10 mM tartrate buffer solution/10% sucrose solution (pH4.0) using a dialysis cassette (Slide-A-Lyzer G2 Dialysis Cassettes 20K MWCO, manufactured by Thermo Scientific), followed by filtration through a 0.22 μm membrane filter.
A673 cells (ATCC) were intradermally transplanted into 5-week-old BALB/c mice (CAnN.Cg-Foxnlnu/CrlCrlj, female, Charles River, Japan) around the ventral region at 3×10^6 cells/mouse. After confirming the engraftment of A673 cells 6 days after transplantation, they were divided into groups based on tumor diameter and body weight, and liposome formulations encapsulating Example 1, Example 2, Example 5 and Example 6 were administered through the tail vein at dose of 50 mg/kg twice a week, respectively. […] The tumor volume was measured over time from the start of administration, and the tumor volume reduction effect due to compound administration was evaluated. The tumor volume was calculated by the following formula using the short and long diameters of the tumor measured with an electronic caliper (Mitutoyo). For comparison in this test, an empty liposome solution prepared in the same manner as in Experimental Example 1 was used.
as §1

[3] = Stability evaluation of solution formulation (Experimental Example 2); assay type: physicochemical; details: for Production rate of Alvocidib / Residual rate: solution formulation
Protocol: For Example 1, Example 2, Example 5, Example 6, Comparative Example 13 and Comparative Example 14, the attrition rate of the test compound and the conversion rate of the test compound to Alvocidib in a solution formulation were calculated by the following method.
Example 1, Example 2, Example 5, Example 6, Comparative Example 13 and Comparative Example 14 were each added to buffer solutions adjusted to pH 3.0, 4.0 and 5.0, respectively, at a concentration of 0.1 mg/mL, and left at 5° C. After 0, 1, 2 and 4 weeks, the residual rates of the compounds of Example 1, Example 2, […], Comparative Example 13 and Comparative Example 14 and the production rate of Alvocidib were determined by HPLC.
The buffer solutions used at each pH are as follows. • pH 3.0: 5 mM tartrate buffer solution/10% sucrose solution (pH 3.0) • pH 4.0: 5 mM tartrate buffer solution/10% sucrose solution (pH 4.0) • pH 5.0: 5 mM tartrate buffer solution/10% sucrose solution (pH 5.0)
The measurement conditions for HPLC are as follows.
• column: Acquity UPLC BEH C18, 1.7 um, 50×2.1 mm • column temperature: 40° C. • mobile phase: • A: water containing 0.1% trifluoroacetic acid • B: acetonitrile • A/B (min): • 80/20(0)→75/25(3)→0/100(3.5)→0/100(4)→80/20(4.01)→80/20(5) • flow rate: 0.8 mL/min • detection: ultraviolet visible detector, measurement wavelength 254 nm • injection: 3 μL

Compound: CN1CC[C@H](c2c(OC(=O)N(C)C[C@@H]3CCCCN3)cc(O)c3c(=O)cc(-c4ccccc4Cl)oc23)[C@H](O)C1 [Example 3, 2-(2-chlorophenyl)-5-hydroxy-8-[(3S,4R)-3-hydroxy-1-methylpiperidin-4-yl]-4-oxo-4H-1-benzopyran-7-yl methyl{[(2S)-piperidin-2-yl]methyl}carbamate]
- Effect on tumor volume [1]: significantly inhibited the increase in tumor volume

Compound: CN1CC[C@H](c2c(OC(=O)N(C)C[C@H]3CCCCN3)cc(O)c3c(=O)cc(-c4ccccc4Cl)oc23)[C@H](O)C1 [Example 4, 2-(2-chlorophenyl)-5-hydroxy-8-[(3S,4R)-3-hydroxy-1-methylpiperidin-4-yl]-4-oxo-4H-1-benzopyran-7-yl methyl{[(2R)-piperidin-2-yl]methyl}carbamate]
- Effect on tumor volume [1]: significantly inhibited the increase in tumor volume

Compound: CCCN(C[C@H]1CCCCN1)C(=O)Oc1cc(O)c2c(=O)cc(-c3ccccc3Cl)oc2c1[C@H]1CCN(C)C[C@H]1O [Example 6, 2-(2-chlorophenyl)-5-hydroxy-8-[(3S,4R)-3-hydroxy-1-methylpiperidin-4-yl]-4-oxo-4H-1-benzopyran-7-yl {[(2R)-piperidin-2-yl]methyl}propylcarbamate]
- Effect on tumor volume [2]: inhibited the increase in tumor volume
- Stability / conversion to Alvocidib in solution formulation at pH 3 ([3]; pH 3, 5° C., up to 4 weeks): stable
- Stability / conversion to Alvocidib in solution formulation at pH 4 ([3]; pH 4, 5° C., up to 4 weeks): stable
- Production rate of Alvocidib ([3]; pH3.0, 0 week): 0.5%
- Residual rate ([3]; pH3.0, 0 week): 98.8%
- Production rate of Alvocidib ([3]; pH3.0, 1 week): 0.5%
- Residual rate ([3]; pH3.0, 1 week): 98.8%
- Production rate of Alvocidib ([3]; pH3.0, 2 week): 0.6%
- Residual rate ([3]; pH3.0, 2 week): 98.8%
- Production rate of Alvocidib ([3]; pH3.0, 4 week): 0.6%
- Residual rate ([3]; pH3.0, 4 week): 98.8%
- Production rate of Alvocidib ([3]; pH4.0, 0 week): 0.5%
- Residual rate ([3]; pH4.0, 0 week): 98.8%
- Production rate of Alvocidib ([3]; pH4.0, 1 week): 0.7%
- Residual rate ([3]; pH4.0, 1 week): 98.7%
- Production rate of Alvocidib ([3]; pH4.0, 2 week): 0.8%
- Residual rate ([3]; pH4.0, 2 week): 98.5%
- Production rate of Alvocidib ([3]; pH4.0, 4 week): 0.9%
- Residual rate ([3]; pH4.0, 4 week): 98.2%
- Production rate of Alvocidib ([3]; pH5.0, 0 week): 0.7%
- Residual rate ([3]; pH5.0, 0 week): 98.7%
- Production rate of Alvocidib ([3]; pH5.0, 1 week): 1.6%
- Residual rate ([3]; pH5.0, 1 week): 97.0%
- Production rate of Alvocidib ([3]; pH5.0, 2 week): 2.6%
- Residual rate ([3]; pH5.0, 2 week): 95.3%
- Production rate of Alvocidib ([3]; pH5.0, 4 week): 4.6%
- Residual rate ([3]; pH5.0, 4 week): 91.8%
